Source: ChEMBL document CHEMBL2074135, “Recognition of L-amino acid ester compounds by rat peptide transporters PEPT1 and PEPT2” (J Pharmacol Exp Ther, 1999)
Each block holds one compound with its values, some of them ahead of it.

Tests used:
Format in all cases: functional, cell-based
[1] = target: T1, Solute carrier family 15 member 1 (Rattus norvegicus) (UniProt P51574); assay: TP_TRANSPORTER: inhibition of Gly-Sar uptake (Gly-Sar: 20 uM, Ser-OMe: 10000 uM) in PEPT1-expressing LLC-PK1 cells
T1 sequence (whole entry): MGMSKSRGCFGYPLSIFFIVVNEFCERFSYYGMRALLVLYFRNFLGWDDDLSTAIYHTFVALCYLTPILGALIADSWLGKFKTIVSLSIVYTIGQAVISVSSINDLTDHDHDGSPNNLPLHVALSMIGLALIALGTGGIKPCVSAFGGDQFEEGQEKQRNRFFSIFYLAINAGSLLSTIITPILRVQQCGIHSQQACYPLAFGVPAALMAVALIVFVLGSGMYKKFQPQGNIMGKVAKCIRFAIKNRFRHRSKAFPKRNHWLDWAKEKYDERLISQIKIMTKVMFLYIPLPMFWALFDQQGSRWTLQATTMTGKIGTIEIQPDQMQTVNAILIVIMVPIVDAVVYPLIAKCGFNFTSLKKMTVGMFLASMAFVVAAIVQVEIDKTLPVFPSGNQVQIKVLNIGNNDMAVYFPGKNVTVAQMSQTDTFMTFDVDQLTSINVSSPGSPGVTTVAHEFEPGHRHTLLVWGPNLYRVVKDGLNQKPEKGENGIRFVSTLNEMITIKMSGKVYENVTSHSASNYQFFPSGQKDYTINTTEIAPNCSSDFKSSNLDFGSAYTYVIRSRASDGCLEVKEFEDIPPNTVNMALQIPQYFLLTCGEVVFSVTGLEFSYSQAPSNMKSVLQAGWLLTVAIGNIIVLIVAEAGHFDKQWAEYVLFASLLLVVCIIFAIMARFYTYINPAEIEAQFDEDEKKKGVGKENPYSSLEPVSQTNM

[2] = target: T1, Solute carrier family 15 member 1 (Rattus norvegicus); assay: TP_TRANSPORTER: inhibition of Gly-Sar uptake (Gly-Sar: 20 uM, Val-OEt: 10000 uM) in PEPT1-expressing LLC-PK1 cells
[3] = target: T2, Solute carrier family 15 member 2 (Rattus norvegicus) (UniProt Q63424); assay: TP_TRANSPORTER: inhibition of Gly-Sar uptake (Gly-Sar: 20 uM, Val-OEt: 10000 uM) in PEPT2-expressing LLC-PK1 cells
T2 sequence (whole entry): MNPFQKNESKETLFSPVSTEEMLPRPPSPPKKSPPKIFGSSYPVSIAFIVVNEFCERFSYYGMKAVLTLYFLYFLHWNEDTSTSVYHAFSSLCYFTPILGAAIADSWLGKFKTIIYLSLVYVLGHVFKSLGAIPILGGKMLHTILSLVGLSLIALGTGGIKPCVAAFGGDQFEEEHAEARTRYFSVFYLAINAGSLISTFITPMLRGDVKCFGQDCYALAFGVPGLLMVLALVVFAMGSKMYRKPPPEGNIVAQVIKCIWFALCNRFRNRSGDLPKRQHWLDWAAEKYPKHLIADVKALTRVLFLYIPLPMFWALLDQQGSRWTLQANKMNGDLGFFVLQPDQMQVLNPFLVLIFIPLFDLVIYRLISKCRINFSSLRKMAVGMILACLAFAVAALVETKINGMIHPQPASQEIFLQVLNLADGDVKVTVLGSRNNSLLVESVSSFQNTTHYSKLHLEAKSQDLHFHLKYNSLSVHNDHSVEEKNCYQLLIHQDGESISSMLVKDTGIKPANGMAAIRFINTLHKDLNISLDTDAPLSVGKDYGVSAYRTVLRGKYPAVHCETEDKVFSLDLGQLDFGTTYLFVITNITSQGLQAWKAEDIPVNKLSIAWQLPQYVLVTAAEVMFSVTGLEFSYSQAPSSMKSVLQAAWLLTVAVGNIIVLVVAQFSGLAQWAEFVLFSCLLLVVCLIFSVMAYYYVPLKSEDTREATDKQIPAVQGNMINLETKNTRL

[4] = target: T2, Solute carrier family 15 member 2 (Rattus norvegicus); assay: TP_TRANSPORTER: inhibition of Gly-Sar uptake (Gly-Sar: 20 uM, Ala-OMe: 10000 uM) in PEPT2-expressing LLC-PK1 cells
[5] = target: T1, Solute carrier family 15 member 1 (Rattus norvegicus); assay: TP_TRANSPORTER: inhibition of Gly-Sar uptake (Gly-Sar: 20 uM, Ala-OMe: 10000 uM) in PEPT1-expressing LLC-PK1 cells
[6] = target: T2, Solute carrier family 15 member 2 (Rattus norvegicus); assay: TP_TRANSPORTER: inhibition of Gly-Sar uptake (Gly-Sar: 20 uM, Val-OBzl: 10000 uM) in PEPT2-expressing LLC-PK1 cells
[7] = target: T1, Solute carrier family 15 member 1 (Rattus norvegicus); assay: TP_TRANSPORTER: inhibition of Gly-Sar uptake (Gly-Sar: 20 uM, Val-OBzl: 10000 uM) in PEPT1-expressing LLC-PK1 cells
[8] = target: T1, Solute carrier family 15 member 1 (Rattus norvegicus); assay: TP_TRANSPORTER: inhibition of Gly-Sar uptake (Gly-Sar: 20 uM, Ile-OMe: 10000 uM) in PEPT1-expressing LLC-PK1 cells
[9] = target: T2, Solute carrier family 15 member 2 (Rattus norvegicus); assay: TP_TRANSPORTER: inhibition of Gly-Sar uptake (Gly-Sar: 20 uM, Ile-OMe: 10000 uM) in PEPT2-expressing LLC-PK1 cells
[10] = target: T1, Solute carrier family 15 member 1 (Rattus norvegicus); assay: TP_TRANSPORTER: inhibition of Gly-Sar uptake (Gly-Sar: 20 uM, Val-tBu: 10000 uM) in PEPT1-expressing LLC-PK1 cells
[11] = target: T2, Solute carrier family 15 member 2 (Rattus norvegicus); assay: TP_TRANSPORTER: inhibition of Gly-Sar uptake (Gly-Sar: 20 uM, Val-tBu: 10000 uM) in PEPT2-expressing LLC-PK1 cells

SMILES: CCOC(=O)[C@@H](N)C(C)C
Activity [2]: inhibitor [+] | Activity [3]: inhibitor [+]

SMILES: CC(C)[C@H](N)C(=O)OCc1ccccc1
Activity [6]: inhibitor [+] | Activity [7]: inhibitor [+]

SMILES: CC(C)[C@H](N)C(=O)OC(C)(C)C
Activity [10]: inhibitor [+] | Activity [11]: inhibitor [+]

Now from value to compound:

Activity [1]: inhibitor [+]
SMILES: COC(=O)[C@@H](N)CO

Activity [4]: inhibitor [+] | Activity [5]: inhibitor [+]
SMILES: COC(=O)[C@H](C)N

Activity [8]: inhibitor [+] | Activity [9]: inhibitor [+]
SMILES: CC[C@H](C)[C@H](N)C(=O)OC
